Measured values from paper PMC10520499, “Next step in the development of mesoprogestins: the preclinical profile of EC313” (Frontiers in Endocrinology, 2023).
Marks after values point to notes of the source that are not given here.

Legend:
human PR-B receptor = biological target: T1, human PR-B receptor (Homo sapiens, UniProt P06401); assay: PR-B transactivation (CHO, MMTV-LUC); type: cell-based
T1 sequence (P06401 1-933): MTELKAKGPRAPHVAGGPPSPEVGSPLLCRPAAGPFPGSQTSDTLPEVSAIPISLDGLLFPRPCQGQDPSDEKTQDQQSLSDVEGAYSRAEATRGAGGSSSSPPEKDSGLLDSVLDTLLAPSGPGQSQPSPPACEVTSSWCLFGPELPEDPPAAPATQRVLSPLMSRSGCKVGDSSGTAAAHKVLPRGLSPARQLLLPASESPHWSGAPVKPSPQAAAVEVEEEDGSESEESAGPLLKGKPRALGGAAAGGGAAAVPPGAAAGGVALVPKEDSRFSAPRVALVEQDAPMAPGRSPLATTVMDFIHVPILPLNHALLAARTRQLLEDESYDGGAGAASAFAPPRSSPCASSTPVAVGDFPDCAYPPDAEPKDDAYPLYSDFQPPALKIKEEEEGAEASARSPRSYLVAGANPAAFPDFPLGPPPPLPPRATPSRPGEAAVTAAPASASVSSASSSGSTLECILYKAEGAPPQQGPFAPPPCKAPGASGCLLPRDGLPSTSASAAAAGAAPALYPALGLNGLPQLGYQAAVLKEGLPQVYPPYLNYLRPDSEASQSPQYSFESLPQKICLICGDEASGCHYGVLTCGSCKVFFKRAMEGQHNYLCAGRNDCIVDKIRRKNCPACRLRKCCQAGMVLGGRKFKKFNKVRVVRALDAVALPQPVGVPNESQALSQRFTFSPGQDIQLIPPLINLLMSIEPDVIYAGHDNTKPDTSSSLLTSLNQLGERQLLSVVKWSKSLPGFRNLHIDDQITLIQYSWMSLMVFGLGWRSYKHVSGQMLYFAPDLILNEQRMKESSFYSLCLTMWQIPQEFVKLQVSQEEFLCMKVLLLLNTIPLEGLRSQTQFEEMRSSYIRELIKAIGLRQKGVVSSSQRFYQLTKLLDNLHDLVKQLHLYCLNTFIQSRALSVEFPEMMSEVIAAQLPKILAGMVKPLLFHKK
Text: The vector pcDNA3.1 coding sequence for the full length of human PRA and PRB (cDNA ORF clone in pcDNA3.1+/C-(K)-DYK) was used as an expression vector for PR isoform A and B, respectively. Vector pGL4.36 coding for the progesterone responsive element MMTV and firefly luciferase reporter vector [luc2P/Hygro] were used as reporter systems (pGL4.36-MMTV/LUC).
A sufficient transactivation signal was achieved using stable transfection for the human PRA and PRB receptors and transient transfection for the MMTV-luciferase reporter gene. Therefore, the first stable transfection with the receptor of interest was performed. Thus, 0.5x10^6 CHO cells per well were plated into 6-well plates in transfection medium w/o antibiotics (RPMI phenol-free, 10% FBS,2mM L-glutamine). When the cells reached 80% confluency, transfection with receptor using FuGENE 6 in Opti-MEM medium was accomplished according to the manufacturer’s instruction. After 48h of transfection, stably transfected cells were cultured in a growth medium containing an antibiotic (G418 500 µg/mL). Only cells with the resistance gene (resistance to G418), which had been transfected together with the DNA for PRA and PRB were able to grow in this medium. Consequently, growing cell clones were selected for further steps as stable transfectants. The CHO cells stably transfected with the expression of PRA or PRB were transiently transfected with promoter MMTV/LUC vectors. For this purpose, cells with a density of 12.5x10^3 per well in a 96-well plate were transfected using transfection reagent FuGENE and Opti-MEM medium, following the manufacturer’s instructions. The recovery of cells lasted 24h and they were then moved into the culture medium and treated for 24h with test compounds.
After 24h incubation of cells with tested compounds, luciferase activity was measured using a VICTOR™ X Multilabel Plate Reader -Perkin Elmer.

GR = biological target: T2, GR (Homo sapiens, UniProt P04150); assay: GR transactivation (HELA, MMTV-LUC); type: cell-based; design: HELA cells line carrying endogenous glucocorticoid protein; endogenous in cells; host or cells: HELA, stably transfected with the reporter only
T2 sequence (P04150 1-777): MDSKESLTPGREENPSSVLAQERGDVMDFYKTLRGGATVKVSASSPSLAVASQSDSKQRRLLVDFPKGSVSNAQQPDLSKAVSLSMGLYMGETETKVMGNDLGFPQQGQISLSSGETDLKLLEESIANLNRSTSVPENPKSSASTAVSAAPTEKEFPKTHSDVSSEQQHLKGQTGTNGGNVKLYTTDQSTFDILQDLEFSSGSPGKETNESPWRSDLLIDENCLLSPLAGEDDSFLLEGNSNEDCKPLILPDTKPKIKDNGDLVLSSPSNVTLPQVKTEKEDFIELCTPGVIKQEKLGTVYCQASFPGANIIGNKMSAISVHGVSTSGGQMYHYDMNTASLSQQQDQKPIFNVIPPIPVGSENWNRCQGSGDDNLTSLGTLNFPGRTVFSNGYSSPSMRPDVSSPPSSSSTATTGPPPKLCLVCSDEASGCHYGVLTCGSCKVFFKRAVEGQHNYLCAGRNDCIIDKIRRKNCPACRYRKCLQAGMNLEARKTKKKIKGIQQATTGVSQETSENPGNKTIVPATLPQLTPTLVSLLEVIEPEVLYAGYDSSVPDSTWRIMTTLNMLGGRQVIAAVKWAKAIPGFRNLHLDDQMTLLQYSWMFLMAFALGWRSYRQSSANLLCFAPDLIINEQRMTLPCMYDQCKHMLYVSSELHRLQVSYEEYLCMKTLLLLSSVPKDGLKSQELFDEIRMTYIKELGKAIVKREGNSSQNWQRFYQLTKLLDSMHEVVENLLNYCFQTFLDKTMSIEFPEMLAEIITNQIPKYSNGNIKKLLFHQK
Procedure: HELA cells line carrying endogenous glucocorticoid protein were cultured in order to study gene expression on the transcriptional level under the influence of the tested compounds. The cells were transfected with reporter vector MMTV/LUC. To produce high protein overexpression, stable transfection was carried out. […] Agonist and antagonist properties of EC313 toward tested receptor GR were analyzed using luminescence detection.
In order to develop the transfection assay, plasmids were generated and isolated. Vector pGL4.36 coding the glucocorticoid receptor responsive element MMTV and firefly luciferase reporter vector [luc2P/Hygro] were used as a reporter system (pGL4.36-MMTV/LUC). The cells were transfected with reporter vector MMTV/LUC.
stable transfection with reporter vector was performed on a 6-well plate (0.5x10^6 cells per well) in culture medium (EMEM, 10% FBS, NEAA, sodium […], L-glutamine). Briefly, according to the transfection procedure, cells were passaged, and they grew in a culture medium containing an appropriate concentration of the antibiotic (Hygromycin 150 µg/mL). Resistance to Hygromycin gene, which had been transfected together with the reporter vector to the cells, only allowed positively transfected cells to grow in this medium. Therefore, growing cell clones were selected for further steps as stable transfectants.
After 24h incubation of cells with the tested compounds, luciferase activity was measured using VICTOR™ X Multilabel Plate Reader -Perkin Elmer.

[1] = tested on: estrogen-primed endometrium of immature rabbits; assay: McPhail assay, estrogen-primed rabbit endometrium; type: in vivo
Procedure: The secretory transformation of estrogen-primed endometrium of immature rabbits indicates the strength of the progestagenic action on the endometrium of the chosen test compound. The simultaneous administration of test compounds with progesterone can indicate potential anti-progestagenic actions.
Female rabbits received daily s.c. injections of 5.0 µg 17β-Estradiol/per animal for 6 days leading to the proliferation of the endometrium. From day 7 to day 13 the animals received doses of vehicle, EC313 (1 to 30 mg/animal/day s.c) or progesterone. On day 14, the animals were sacrificed and the uteri were processed for histological evaluation and the secretory endometrial transformation was rated according to a modified McPhail score (1 – 4).
The rating scale ranges from 1 (no or very low secretory, transformation, or agonistic activity) to 4 (highest secretory, transformation, or agonistic activity). The McPhail score of 2 (median) was selected for the comparison. The antagonistic activity was measured by the concomitant administration of progesterone ([…] s.c.).

[2] = tested on: adrenalectomized male Wistar rats; assay: Thymus-Involution-Test in adrenalectomized rats; type: in vivo, rat; settings: doses up to 100 mg/animal/day s.c., 4 days
Procedure: The standard Thymus-Involution-Test in rats was used. […] On day 5 the animals were sacrificed, and the thymus and spleen weights were determined. Reduced weight of the thymus indicated glucocorticoid activity. Stopping the dexamethasone-induced thymus reduction by the test compound indicated anti-glucocorticoid activity.

## C[C@]12C[C@H](c3ccc(-c4ccoc4)cc3)C3=C4CCC(=O)C=C4CC[C@H]3[C@@H]1CC[C@]21OCCC1=C(F)F [EC313]
Human PR-B receptor; PR-B antagonism
  potency relative to Mifepristone: approximately 13%
Human PR-B receptor; PR-B, high nM concentrations
  agonistic activity: Only marginal agonistic activity
Human PR-B receptor; PR-B, set of 6 experiments, Promegestone 1.0 nM, read-out: average IC50, antagonism
  IC50: 2.5 ± 0.7 nM
GR
  activity on GR in transactivation: weak inhibitor
GR; comparative transactivation profile, read-out: Potency, GR Antagonism
  IC50: 100 nM
[1]; McPhail score 2 doses
  Quotient between antagonistic and agonistic action: ~ 10.0*
[1]; agonistic, 1 to 30 mg/animal/day s.c., scale 1-4
  maximal effect, McPhail score (average per treatment group): ≤ 2.5
[1]; dose giving McPhail score 2
  Score 2 for PR-agonistic activity: ~ 1.0 mg/animal/day s.c.
[1]; dose giving McPhail score 2, concomitant progesterone (1 g/animal/day [sic] s.c.)
  Score 2 for PR-antagonistic activity: ~ 10.0 mg/animal/day s.c.
[1]; rabbit, in vivo
  relatively more agonistic than antagonistic effects in comparison with Asoprisnil: approx. 7 times
[2]
  glucocorticoid / anti-glucocorticoid activity (thymus weight): neither glucocorticoid nor anti-glucocorticoid activities
